# Test results as given in ChEMBL document CHEMBL5244252, “PROTAC: A promising technology for cancer treatment” (Eur J Med Chem, 2020).
# Columns and labels:
# [1] = target: T1, Steroid hormone receptor ERR1 (Homo sapiens) (UniProt P11474); test: In vivo protac activity at ERRalpha in human MDA-MB-231 cells xenografted mouse assessed as reduction in ERRalpha level in tumor at 100 mg/kg, ip administered 3 times a day; format: functional, organism-based; set-up: scale not given: the % may be the effect or the level left
# T1 sequence (whole entry): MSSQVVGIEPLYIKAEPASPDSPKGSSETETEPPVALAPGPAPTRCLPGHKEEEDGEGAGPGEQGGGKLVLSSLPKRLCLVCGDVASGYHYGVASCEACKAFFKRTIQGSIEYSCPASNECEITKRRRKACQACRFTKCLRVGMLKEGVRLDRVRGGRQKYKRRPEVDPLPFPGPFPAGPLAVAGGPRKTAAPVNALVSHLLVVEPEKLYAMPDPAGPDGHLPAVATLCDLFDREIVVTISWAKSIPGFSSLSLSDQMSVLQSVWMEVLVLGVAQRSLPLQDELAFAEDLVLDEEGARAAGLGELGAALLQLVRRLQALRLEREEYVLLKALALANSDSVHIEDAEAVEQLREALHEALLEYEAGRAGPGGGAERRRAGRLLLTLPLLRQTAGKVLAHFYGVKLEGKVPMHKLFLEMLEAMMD
# [2] = target: von Hippel-Lindau disease tumor suppressor/Steroid hormone receptor ERR1 (Homo sapiens) (UniProt P11474+P40337); test: Protac activity at VHL/ERRalpha in human MCF7 cells assessed as maximum degradation; format: cell-based
# [3] = target: Cellular tumor antigen p53 (Homo sapiens) (UniProt P04637); test: Induction of p53 stabilization in human HCT-116 cells assessed as fold increase by Western blot analysis; format: cell-based
# [4] = Antiproliferative activity against human HBL1 cells expressing BTK C481S mutant assessed as growth inhibition; format: functional
# Sequence of Cellular tumor antigen p53 (Homo sapiens) (P04637 whole entry, looked up): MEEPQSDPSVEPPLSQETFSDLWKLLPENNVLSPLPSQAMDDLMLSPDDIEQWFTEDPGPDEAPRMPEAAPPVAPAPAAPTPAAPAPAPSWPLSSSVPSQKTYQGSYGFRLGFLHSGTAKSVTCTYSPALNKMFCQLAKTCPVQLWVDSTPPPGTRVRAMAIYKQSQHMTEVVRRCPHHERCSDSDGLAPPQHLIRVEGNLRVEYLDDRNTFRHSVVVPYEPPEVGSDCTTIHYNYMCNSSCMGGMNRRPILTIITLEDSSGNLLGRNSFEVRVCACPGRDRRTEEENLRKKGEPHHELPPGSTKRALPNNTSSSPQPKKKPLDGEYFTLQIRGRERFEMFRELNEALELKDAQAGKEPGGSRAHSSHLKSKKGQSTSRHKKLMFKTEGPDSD
# Sequence of von Hippel-Lindau disease tumor suppressor/Steroid hormone receptor ERR1 (Homo sapiens) (P40337 whole entry, looked up, one chain of several): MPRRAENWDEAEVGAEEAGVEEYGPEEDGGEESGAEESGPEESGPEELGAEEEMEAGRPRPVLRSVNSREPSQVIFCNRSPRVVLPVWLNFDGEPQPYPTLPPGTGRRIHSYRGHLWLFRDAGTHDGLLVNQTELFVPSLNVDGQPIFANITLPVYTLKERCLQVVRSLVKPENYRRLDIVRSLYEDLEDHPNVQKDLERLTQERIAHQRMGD
smiles,measurement,setting,value
COc1cc(/C=C2/SC(=O)N(CCOCCC(=O)N[C@@H](C(=O)N3C[C@H](O)C[C@H]3C(=O)Nc3ccc(-c4scnc4C)cc3)C(C)(C)C)C2=O)ccc1Oc1ccc(C#N)cc1C(F)(F)F,Activity,[1],39%
same,Emax,[2],86%
COc1cc(C(=O)NCCOCCOCCOCCNC(=O)C[C@@H]2N=C(c3ccc(Cl)cc3)C3C(C)=C(C)SC3n3c(C)nnc32)ccc1NC(=O)[C@@H]1N[C@@H](CC(C)(C)C)[C@](C#N)(c2ccc(Cl)cc2F)[C@H]1c1cccc(Cl)c1F (stereo not given in full),fold change (FC),[3],5.9
Nc1ncnc2c1c(-c1ccc(Oc3ccccc3)cc1)nn2[C@@H]1CCCN(C(=O)c2cn(CCOCCOCCOCCNc3cccc4c3C(=O)N(C3CCC(=O)NC3=O)C4=O)nn2)C1 (stereo not given in full),GI50,[4],28 nM
C=CC(=O)N1CCC[C@@H](n2nc(-c3ccc(Oc4ccccc4)cc3)c3c(N)ncnc32)C1 [IBRUTINIB],GI50,[4],700 nM
